# Reference: PubChem BioAssay AID256 (DTP/NCI, 2004)
# Values joined by “and” are separate entries in the source; they are usually repeats but may differ in a detail not shown here. Equal entries are not always repeated. Toxic doses and inconclusive results are not listed.
# System: CD2F1 mice, L1210 leukemia ip, survival T/C
# Assay: NCI In Vivo Anticancer Drug Screen. Data for tumor model L1210 Leukemia (intraperitoneal) in CD2F1 (CDF1) mice
# Details: higher = longer survival
# How it was run: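 Each value reflects a quotient of treated over vehicle control outcomes in mice with a transplanted tumor.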
# [1] = endpoint: mean survival time, dose: 100.0 mg/kg/injection, schedule: Q04DX002 (ip), vehicle: saline with Tween-80
# [2] = endpoint: mean survival time, dose: 200.0 mg/kg/injection, schedule: Q04DX002 (ip), vehicle: saline with Tween-80
# [3] = endpoint: mean survival time, dose: 400.0 mg/kg/injection, schedule: Q04DX002 (ip), vehicle: saline with Tween-80
# [4] = endpoint: mean survival time, dose: 100.0 mg/kg/injection, schedule: Q01DX009 (ip), vehicle: saline with Tween-80
smiles,measurement,setting,value
CC(C)c1ccc2c(c1)CCC(C(Cl)Cl)C2(C)C (stereo unspecified),T/C,[1],95 % of control
same,T/C,[2],111 % of control
same,T/C,[3],100 % of control
CC12CCC=CC1=CC(=O)CC2 (stereo unspecified),T/C,[1],96 % of control
same,T/C,[2],100 % of control
same,T/C,[3],124 % of control
CC1(C)C=Cc2ccccc21,T/C,"endpoint: mean survival time, dose: 50.0 mg/kg/injection, schedule: Q01DX009 (ip), vehicle: saline with Tween-80",113 % of control
same,T/C,[4],113 % of control
CC(=O)OC1CCC2(C)C(=CCC3C2CCC2(C)C(C(C)CCC(=O)O)CCC32)C1 (stereo unspecified),T/C,[4],95 % of control
same,T/C,"endpoint: mean survival time, dose: 200.0 mg/kg/injection, schedule: Q01DX009 (ip), vehicle: saline with Tween-80",95 % of control
same,T/C,"endpoint: mean survival time, dose: 400.0 mg/kg/injection, schedule: Q01DX009 (ip), vehicle: saline with Tween-80",96 % of control
CCCCCCCCCCC(CCCCCCCCCC)=NN=C(CCCCCCCCCC)CCCCCCCCCC,T/C,"endpoint: mean survival time, dose: 100.0 mg/kg/injection, schedule: Q01DX001 (ip), vehicle: Klucel (hydroxypropylcellulose) (HPC)",90 % of control
same,T/C,"endpoint: mean survival time, dose: 200.0 mg/kg/injection, schedule: Q01DX001 (ip), vehicle: Klucel (hydroxypropylcellulose) (HPC)",86 % of control
same,T/C,"endpoint: mean survival time, dose: 400.0 mg/kg/injection, schedule: Q01DX001 (ip), vehicle: Klucel (hydroxypropylcellulose) (HPC)",90 % of control
CC(O)CN1CC(C)OC(C)C1 (stereo unspecified),T/C,"endpoint: mean survival time, dose: 100.0 mg/kg/injection, schedule: Q01DX009 (ip), vehicle: saline",100 % of control
same,T/C,"endpoint: mean survival time, dose: 100.0 mg/kg/injection, schedule: Q04DX003 (ip), vehicle: saline",103 % of control
same,T/C,"endpoint: mean survival time, dose: 200.0 mg/kg/injection, schedule: Q01DX009 (ip), vehicle: saline",100 % of control
same,T/C,"endpoint: mean survival time, dose: 200.0 mg/kg/injection, schedule: Q04DX003 (ip), vehicle: saline",103 % of control
same,T/C,"endpoint: mean survival time, dose: 400.0 mg/kg/injection, schedule: Q01DX009 (ip), vehicle: saline",100 % of control
same,T/C,"endpoint: mean survival time, dose: 400.0 mg/kg/injection, schedule: Q04DX003 (ip), vehicle: saline",101 % of control
O=C1C=C(N2CC2)C(=O)C(N2CC2)=C1N1CC1,T/C,"endpoint: median survival time, dose: 12.5 micrograms/kg/injection, schedule: Q01DX009 (ip), vehicle: saline",113 % of control
same,T/C,"endpoint: median survival time, dose: 25.0 micrograms/kg/injection, schedule: Q01DX009 (ip), vehicle: saline with Tween-80",96 % of control
same,T/C,"endpoint: median survival time, dose: 25.0 micrograms/kg/injection, schedule: Q01DX009 (ip), vehicle: saline",113 % of control
same,T/C,"endpoint: median survival time, dose: 50.0 micrograms/kg/injection, schedule: Q01DX009 (ip), vehicle: saline with Tween-80",118 % of control and 108 % of control
same,T/C,"endpoint: median survival time, dose: 100.0 micrograms/kg/injection, schedule: Q01DX009 (ip), vehicle: saline with Tween-80",156 % of control
same,T/C,"endpoint: median survival time, dose: 200.0 micrograms/kg/injection, schedule: Q01DX009 (ip), vehicle: saline with Tween-80",164 % of control and 190 % of control
same,T/C,"endpoint: median survival time, dose: 400.0 micrograms/kg/injection, schedule: Q01DX009 (ip), vehicle: saline with Tween-80",87 % of control and 91 % of control
Cc1ncc([N+](=O)[O-])cc1C(=O)O,T/C,"endpoint: mean survival time, dose: 100.0 mg/kg/injection, schedule: Q04DX003 (ip), vehicle: saline with Tween-80",94 % of control
same,T/C,"endpoint: mean survival time, dose: 200.0 mg/kg/injection, schedule: Q04DX003 (ip), vehicle: saline with Tween-80",96 % of control
same,T/C,"endpoint: mean survival time, dose: 400.0 mg/kg/injection, schedule: Q04DX003 (ip), vehicle: saline with Tween-80",93 % of control
O=C(NCCO)c1cc2ccccc2o1,T/C,"endpoint: mean survival time, dose: 100.0 mg/kg/injection, schedule: Q01DX001 (ip), vehicle: saline with Tween-80",93 % of control
same,T/C,"endpoint: mean survival time, dose: 200.0 mg/kg/injection, schedule: Q01DX001 (ip), vehicle: saline with Tween-80",98 % of control
same,T/C,"endpoint: mean survival time, dose: 400.0 mg/kg/injection, schedule: Q01DX001 (ip), vehicle: saline with Tween-80",90 % of control
CC(=O)OC1COC(n2nnc(C#N)c2C#N)C(OC(C)=O)C1OC(C)=O (stereo unspecified),T/C,"endpoint: mean survival time, dose: 12.5 mg/kg/injection, schedule: Q01DX005 (ip), vehicle: distilled water + Tween-80",103 % of control and 98 % of control
same,T/C,"endpoint: mean survival time, dose: 25.0 mg/kg/injection, schedule: Q01DX005 (ip), vehicle: distilled water + Tween-80",97 % of control and 103 % of control
same,T/C,"endpoint: mean survival time, dose: 50.0 mg/kg/injection, schedule: Q01DX005 (ip), vehicle: distilled water + Tween-80",98 % of control and 101 % of control
same,T/C,"endpoint: mean survival time, dose: 100.0 mg/kg/injection, schedule: Q01DX005 (ip), vehicle: distilled water + Tween-80",104 % of control and 106 % of control
same,T/C,"endpoint: mean survival time, dose: 200.0 mg/kg/injection, schedule: Q01DX005 (ip), vehicle: distilled water + Tween-80",95 % of control
NCc1cc(O)c(O)c(O)c1,T/C,"endpoint: median survival time, dose: 37.5 mg/kg/injection, schedule: Q01DX005 (ip), vehicle: saline",114 % of control
same,T/C,"endpoint: median survival time, dose: 150.0 mg/kg/injection, schedule: Q01DX005 (ip), vehicle: saline",153 % of control
same,T/C,"endpoint: median survival time, dose: 300.0 mg/kg/injection, schedule: Q01DX005 (ip), vehicle: saline",156 % of control and 160 % of control
CCOC(=O)c1ccc(NN=NCCF)cc1,T/C,"endpoint: median survival time, dose: 3.12 mg/kg/injection, schedule: Q01DX009 (ip), vehicle: distilled water + Tween-80",114 % of control and 96 % of control
same,T/C,"endpoint: median survival time, dose: 3.13 mg/kg/injection, schedule: Q01DX009 (ip), vehicle: distilled water + Tween-80",104 % of control
same,T/C,"endpoint: median survival time, dose: 6.25 mg/kg/injection, schedule: Q01DX009 (ip), vehicle: distilled water + Tween-80",122 % of control and 98 % of control (2×)
same,T/C,"endpoint: median survival time, dose: 12.5 mg/kg/injection, schedule: Q01DX009 (ip), vehicle: distilled water + Tween-80",92 % of control and 96 % of control
same,T/C,"endpoint: median survival time, dose: 50.0 mg/kg/injection, schedule: Q01DX009 (ip), vehicle: distilled water + Tween-80",94 % of control
